Consider two compounds from ChEMBL document CHEMBL4304779, “Treatment of Cancers by Inhibition of Isoprenylcysteine Carboxyl Methyltransferase” (ACS Med Chem Lett, 2019).

What is called IC50 is the concentration needed to halve the response being measured.

The assay concerns the target Protein-S-isoprenylcysteine O-methyltransferase (Homo sapiens, UniProt O60725). The assay can be described thus: Inhibition of recombinant human ICMT expressed in baculovirus infected Sf9 insect cells using SAM as substrate preincubated for 30 mins followed by substrate addition and measured after 90 mins by MTase-Glo assay.

Sequence of Protein-S-isoprenylcysteine O-methyltransferase (O60725 whole entry): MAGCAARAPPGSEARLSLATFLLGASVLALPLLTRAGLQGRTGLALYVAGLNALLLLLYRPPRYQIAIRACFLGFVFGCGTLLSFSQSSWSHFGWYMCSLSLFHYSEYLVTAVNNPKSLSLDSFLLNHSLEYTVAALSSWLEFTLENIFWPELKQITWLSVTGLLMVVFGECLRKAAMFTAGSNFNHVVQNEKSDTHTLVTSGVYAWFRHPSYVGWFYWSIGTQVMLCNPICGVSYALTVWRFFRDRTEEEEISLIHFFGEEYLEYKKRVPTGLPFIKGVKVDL

For `Cc1cc(C#N)ccc1O[C@@H](C)COc1cccc(-c2ccnn2C)c1`, the IC50 was found to be 1.6 nM.
With `COc1cc(C#N)ccc1O[C@@H](C)COc1cccc(-n2ccnc2C)c1`, the IC50 is 0.08 nM.
